Laboratory results: the supplement of paper PMC10307832

What was measured:
Assay in all cases: relative viability (nuclei count vs DMSO), 5 days (fraction); higher = more cells survive
[1] = test system: EPLC-272H
Summary of the method: (§1)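 Relative viability divides the nuclei count in treated wells by that in vehicle wells. Lung cancer cell lines were seeded in 1536-well plates, dosed by pin tool the next day, and fixed and stained after 5 days in one step with final 0.05% Triton X-100, 1% formaldehyde and 1 ug/ml Hoechst. Dosing was a single drug or a fixed anchor-drug dose plus five library-drug doses (not always all listed) in √10 steps, and values are medians of duplicate plates imaged at 4×.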

[2] = test system: NCI-H1437
Summary of the method: as §1

[3] = test system: LCLC-103H
Summary of the method: as §1

[4] = test system: HCC-15
Summary of the method: as §1

[5] = test system: HCC-44
Summary of the method: as §1

[6] = test system: HCC-78
Summary of the method: as §1

[7] = test system: NCI-H2405
Summary of the method: as §1

[8] = test system: HCC-827
Summary of the method: as §1

[9] = test system: NCI-H727
Summary of the method: as §1

[10] = test system: NCI-H1792
Summary of the method: as §1

[11] = test system: NCI-H661
Summary of the method: as §1

[12] = test system: NCI-H2085
Summary of the method: as §1

[13] = test system: HARA
Summary of the method: as §1

[14] = test system: HCC-366
Summary of the method: as §1

[15] = test system: COR-L23
Summary of the method: as §1

[16] = test system: NCI-H1975
Summary of the method: as §1

[17] = test system: NCI-H2023
Summary of the method: as §1

[18] = test system: COR-L 105
Summary of the method: as §1

[19] = test system: UMC-11
Summary of the method: as §1

[20] = test system: SK-LU-1
Summary of the method: as §1

O=c1[nH]c2ccccc2n1C1CCN(CCCC(c2ccc(F)cc2)c2ccc(F)cc2)CC1 [Pimozide] + CC(C)C[C@H](NC(=O)[C@H](Cc1ccccc1)NC(=O)c1cnccn1)B(O)O [Bortezomib] (partner 0.002 µM)
relative viability ([1]; first compound 0.08 µM): 0.974 | relative viability ([1]; first compound 0.253 µM): 1.04 | relative viability ([1]; first compound 0.8 µM): 0.826 | relative viability ([1]; first compound 2.53 µM): 0.828 | relative viability ([1]; first compound 8 µM): 0.91 | relative viability ([2]; first compound 0.08 µM): 0.492 | relative viability ([2]; first compound 0.253 µM): 0.45 | relative viability ([2]; first compound 0.8 µM): 0.423 | relative viability ([2]; first compound 2.53 µM): 0.507 | relative viability ([2]; first compound 8 µM): 0.403 | relative viability ([3]; first compound 0.08 µM): 1 | relative viability ([3]; first compound 0.253 µM): 1.07 | relative viability ([3]; first compound 0.8 µM): 0.877 | relative viability ([3]; first compound 2.53 µM): 1.08 | relative viability ([3]; first compound 8 µM): 1.12 | relative viability ([4]; first compound 0.08 µM): 1.12 | relative viability ([4]; first compound 0.253 µM): 0.994 | relative viability ([4]; first compound 0.8 µM): 0.848 | relative viability ([4]; first compound 2.53 µM): 0.963 | relative viability ([4]; first compound 8 µM): 0.908 | relative viability ([5]; first compound 0.08 µM): 0.874 | relative viability ([5]; first compound 0.253 µM): 0.788 | relative viability ([5]; first compound 0.8 µM): 0.856 | relative viability ([5]; first compound 2.53 µM): 0.975 | relative viability ([5]; first compound 8 µM): 0.877 | relative viability ([6]; first compound 0.08 µM): 0.408 | relative viability ([6]; first compound 0.253 µM): 0.417 | relative viability ([6]; first compound 0.8 µM): 0.409 | relative viability ([6]; first compound 2.53 µM): 0.443 | relative viability ([6]; first compound 8 µM): 0.336 | relative viability ([7]; first compound 0.08 µM): 0.761 | relative viability ([7]; first compound 0.253 µM): 0.979 | relative viability ([7]; first compound 0.8 µM): 0.979 | relative viability ([7]; first compound 2.53 µM): 0.896 | relative viability ([7]; first compound 8 µM): 0.984 | relative viability ([8]; first compound 0.253 µM): 0.943 | relative viability ([8]; first compound 0.8 µM): 0.918 | relative viability ([8]; first compound 2.53 µM): 0.982 | relative viability ([8]; first compound 8 µM): 1.04 | relative viability ([9]; first compound 0.08 µM): 0.729 | relative viability ([9]; first compound 0.253 µM): 0.788 | relative viability ([9]; first compound 0.8 µM): 0.884 | relative viability ([9]; first compound 2.53 µM): 0.733 | relative viability ([9]; first compound 8 µM): 0.868 | relative viability ([10]; first compound 0.08 µM): 0.951 | relative viability ([10]; first compound 0.253 µM): 0.939 | relative viability ([10]; first compound 0.8 µM): 0.894 | relative viability ([10]; first compound 2.53 µM): 0.875 | relative viability ([10]; first compound 8 µM): 0.976 | relative viability ([11]; first compound 0.08 µM): 0.672 | relative viability ([11]; first compound 0.253 µM): 0.699 | relative viability ([11]; first compound 0.8 µM): 0.719 | relative viability ([11]; first compound 2.53 µM): 0.725 | relative viability ([11]; first compound 8 µM): 0.852 | relative viability ([12]; first compound 0.08 µM): 0.972 | relative viability ([12]; first compound 0.253 µM): 1.01 | relative viability ([12]; first compound 0.8 µM): 1.04 | relative viability ([12]; first compound 2.53 µM): 1.13 | relative viability ([12]; first compound 8 µM): 0.741 | relative viability ([13]; first compound 0.08 µM): 0.857 | relative viability ([13]; first compound 0.253 µM): 1.16 | relative viability ([13]; first compound 0.8 µM): 0.937 | relative viability ([13]; first compound 2.53 µM): 1.17 | relative viability ([13]; first compound 8 µM): 1.06 | relative viability ([14]; first compound 0.08 µM): 1.01 | relative viability ([14]; first compound 0.253 µM): 0.999 | relative viability ([14]; first compound 0.8 µM): 0.985 | relative viability ([14]; first compound 2.53 µM): 1.03 | relative viability ([14]; first compound 8 µM): 1.01 | relative viability ([15]; first compound 0.08 µM): 0.965 | relative viability ([15]; first compound 0.253 µM): 0.945 | relative viability ([15]; first compound 0.8 µM): 0.956 | relative viability ([15]; first compound 2.53 µM): 0.967 | relative viability ([15]; first compound 8 µM): 0.964 | relative viability ([16]; first compound 0.08 µM): 0.338 | relative viability ([16]; first compound 0.253 µM): 0.39 | relative viability ([16]; first compound 0.8 µM): 0.398 | relative viability ([16]; first compound 2.53 µM): 0.337 | relative viability ([16]; first compound 8 µM): 0.355 | relative viability ([17]; first compound 0.08 µM): 0.973 | relative viability ([17]; first compound 0.253 µM): 0.996 | relative viability ([17]; first compound 0.8 µM): 0.74 | relative viability ([17]; first compound 2.53 µM): 0.884 | relative viability ([17]; first compound 8 µM): 0.581 | relative viability ([18]; first compound 0.253 µM): 0.749 | relative viability ([18]; first compound 0.8 µM): 0.659 | relative viability ([18]; first compound 2.53 µM): 0.672 | relative viability ([18]; first compound 8 µM): 0.479 | relative viability ([19]; first compound 0.08 µM): 0.716 | relative viability ([19]; first compound 0.253 µM): 0.802 | relative viability ([19]; first compound 0.8 µM): 0.686 | relative viability ([19]; first compound 2.53 µM): 0.772 | relative viability ([19]; first compound 8 µM): 0.52 | relative viability ([20]; first compound 0.08 µM): 1.09 | relative viability ([20]; first compound 0.253 µM): 1.21 | relative viability ([20]; first compound 0.8 µM): 0.741 | relative viability ([20]; first compound 2.53 µM): 0.899 | relative viability ([20]; first compound 8 µM): 1.11
